Assay results from patent US20230203081A1, “LINCOSAMIDE ANTIBIOTICS AND USES THEREOF” (President and Fellows of Harvard College, priority 2020, published 2023).
In brackets after ≈: the same amount, converted by molar mass.

Columns and labels:
Type in all cases: cell-based
E. coli ΔTolC = experiment: microbe, parasite or virus in culture; conditions: Escherichia coli, E. coli ΔTolC
Description: (§1) Minimum inhibitory concentrations (MICs) were determined by broth microdilution method or agar dilution method following the Clinical and Laboratory Standards Institute guidelines. Standard bacterial strains were obtained from American Type Culture Collection (ATCC). Other bacterial strains were obtained from hospitals and commercial sources, so noted in Table 11. […] Specialized procedures were employed for streptococcal and anaerobic strains. All other bacterial strains were sub-cultured on blood agar plates (tryptic soy agar with 5% sheep blood, Hardy Diagnostics) and incubated overnight at 35° C. […] Suspensions were further diluted to obtain a final inoculum of 5×10^5 CFU/mL for broth microdilution experiments.

S. aureus cErmA = experiment: MIC (broth microdilution or agar dilution, CLSI); conditions: Staphylococcus aureus; S. aureus cErmA; read-out: MIC
Description: (§2) Minimum inhibitory concentrations (MICs) were determined by broth microdilution method or agar dilution method following the Clinical and Laboratory Standards Institute guidelines. Standard bacterial strains were obtained from American Type Culture Collection (ATCC). Other bacterial strains were obtained from hospitals and commercial sources, so noted in Table 11. Before the start of the MIC experiment, standard and test compound stock solutions were prepared in dimethyl sulfoxide (DMSO, Aldrich D2650) at a stock concentration of 5,120 μg/mL. The compound concentration range typically employed for each experiment was 128-0.06 μg/mL (2.5% final DMSO concentration). Clindamycin was used as a comparator in all experiments and each experiment was performed in triplicate. Specialized procedures were employed for streptococcal and anaerobic strains. All other bacterial strains were sub-cultured on blood agar plates (tryptic soy agar with 5% sheep blood, Hardy Diagnostics) and incubated overnight at 35° C. Organisms were suspended in cation-adjusted Mueller-Hinton broth (CaMHB, BD 212322) and optical density was adjusted to 0.5 McFarland standard. Suspensions were further diluted to obtain a final inoculum of 5×10^5 CFU/mL for broth microdilution experiments.

E. faecium Clinical VRE = experiment: MIC (broth microdilution or agar dilution, CLSI); conditions: Enterococcus faecium; E. faecium Clinical VRE; read-out: MIC
Description: as §2

S. aureus ATCC 29213 = experiment: MIC (broth microdilution or agar dilution, CLSI); conditions: Staphylococcus aureus, ATCC29213, S. aureus ATCC 29213; read-out: MIC
Description: as §1

E. coli LptD = experiment: MIC (broth microdilution or agar dilution, CLSI); conditions: Escherichia coli, E. coli LptD; read-out: MIC
Description: as §1

S. pneumoniae ATCC 49619 = experiment: MIC (broth microdilution or agar dilution, CLSI); conditions: Streptococcus pneumoniae, ATCC49619, S. pneumoniae ATCC 49619; read-out: MIC
Description: as §1

S. pyogenes ATCC 19615 = experiment: MIC (broth microdilution or agar dilution, CLSI); conditions: Streptococcus pyogenes, ATCC19615, S. pyogenes ATCC 19615; read-out: MIC
Description: as §1

K. oxytoca Clinical = experiment: MIC (broth microdilution or agar dilution, CLSI); conditions: Klebsiella oxytoca; K. oxytoca Clinical; read-out: MIC
Description: as §1

E. faecalis ATCC 29212 = experiment: MIC (broth microdilution or agar dilution, CLSI); conditions: Enterococcus faecalis, ATCC29212, E. faecalis ATCC 29212; read-out: MIC
Description: as §1

E. coli ATCC 25922 = experiment: MIC (broth microdilution or agar dilution, CLSI); conditions: Escherichia coli, ATCC25922; E. coli ATCC 25922; read-out: MIC
Description: as §1

[1] = tested on: broad panel of different clinical isolates; experiment: microbe, parasite or virus in culture; conditions: Staphylococcus aureus, norA
Description: as §1

| SMILES | MIC (E. coli ΔTolC) [µg/mL] | MIC (S. aureus cErmA) [µg/mL] | MIC (E. faecium Clinical VRE) [µg/mL] | MIC (S. aureus ATCC 29213) [µg/mL] | MIC (E. coli LptD) [µg/mL] | MIC (S. pneumoniae ATCC 49619) [µg/mL] | MIC (S. pyogenes ATCC 19615) [µg/mL] | MIC (K. oxytoca Clinical) [µg/mL] | MIC (E. faecalis ATCC 29212) [µg/mL] | MIC (E. coli ATCC 25922) [µg/mL] | MIC ([1]; S. aureus HAV#051, mecA, spcl, ermA, aad1, aac6′-aph2″) [µg/mL] | MIC ([1]; S. aureus HAV#052, mecA, fosB, blaZ) [µg/mL] | MIC ([1]; S. aureus HAV#053 mecA, fosB) [µg/mL] | MIC ([1]; S. aureus HAV#054, mecA, spcl, aad1, fosB, ermA, aac6′-aph2″, blaZ) [µg/mL] |
| --- | --- | --- | --- | --- | --- | --- | --- | --- | --- | --- | --- | --- | --- | --- |
| CS[C@H]1O[C@H]([C@H](NC(=O)[C@H]2NC[C@@H]3C[C@H](CC(C)C)CCO[C@H]32)[C@H](C)Sc2ccc(-c3cccnc3)cc2)[C@H](O)[C@H](O)[C@H]1O [FSA-09-05-074, (4S,5aS,8S,8aR)-4-Isobutyl-N-((1S,2S)-2-((4-(pyridin-3-yl)phenyl)thio)-1-((2R,3R,4S,5R,6R)-3,4,5-trihydroxy-6-(methylthio)tetrahydro-2H-pyran-2-yl)propyl)octahydro-2H-oxepino[2,3-c]pyrrole-8-carboxamide] | 4 (≈ 6.19 µM) | 2 (≈ 3.1 µM) | 2 (≈ 3.1 µM) | 1 (≈ 1.55 µM) | 4 (≈ 6.19 µM) | 0.125 (≈ 0.194 µM) | 0.25 (≈ 0.387 µM) | 32 (≈ 49.5 µM) | 0.5 (≈ 0.774 µM) | 32 (≈ 49.5 µM) |  |  |  |  |
| CSC1O[C@H]([C@H](NC(=O)[C@H]2NC[C@@H]3C[C@H](CCCCl)CCO[C@H]32)[C@H](C)Cl)C(O)C(O)[C@H]1O (stereo partly drawn) [FSA-12-03-042] | 0.5 (≈ 0.97 µM) | 16 (≈ 31 µM) | 4 (≈ 7.76 µM) | 0.125 (≈ 0.242 µM) | 2 (≈ 3.88 µM) | 0.06 (≈ 0.116 µM) | 0.06 (≈ 0.116 µM) | 8 (≈ 15.5 µM) | 0.125 (≈ 0.242 µM) | 8 (≈ 15.5 µM) |  |  |  |  |
| CNCc1ccc(S[C@@H](C)[C@@H](NC(=O)[C@H]2NC[C@@H]3C[C@H](CC(C)C)CCO[C@H]32)[C@H]2O[C@H](SC)[C@H](O)[C@@H](O)[C@H]2O)cc1 [FSA-09-05-079, (4S,5aS,8S,8aR)-4-Isobutyl-N-((1S,2S)-2-((4-((methylamino)methyl)phenyl)thio)-1-((2R,3R,4S,5R,6R)-3,4,5-trihydroxy-6-(methylthio)tetrahydro-2H-pyran-2-yl)propyl)octahydro-2H-oxepino[2,3-c]pyrrole-8-carboxamide] | 1 (≈ 1.63 µM) | 8 (≈ 13.1 µM) | 4 (≈ 6.54 µM) | 1 (≈ 1.63 µM) | 1 (≈ 1.63 µM) | 0.5 (≈ 0.817 µM) | 0.5 (≈ 0.817 µM) | 16 (≈ 26.1 µM) | 0.5 (≈ 0.817 µM) | 16 (≈ 26.1 µM) |  |  |  |  |
| CCCC[C@@H]1CCO[C@@H]2[C@H](CN[C@@H]2C(=O)N[C@H]([C@H](C)Cl)[C@H]2OC(SC)[C@H](O)C(O)C2O)C1 (stereo partly drawn) [FSA-12-03-029] | 4 (≈ 8.08 µM) | 8 (≈ 16.2 µM) | 8 (≈ 16.2 µM) | 0.25 (≈ 0.505 µM) | 4 (≈ 8.08 µM) | 0.06 (≈ 0.121 µM) | 0.06 (≈ 0.121 µM) | 32 (≈ 64.6 µM) | 0.25 (≈ 0.505 µM) | 16 (≈ 32.3 µM) |  |  |  |  |
| CS[C@H]1O[C@H]([C@H](NC(=O)[C@H]2NC[C@@H]3C[C@H](CC(C)C)CCO[C@H]32)[C@H](C)Sc2ccc(CN3CCCCC3)cc2)[C@H](O)[C@H](O)[C@H]1O [FSA-09-05-077, (4S,5aS,8S,8aR)-4-Isobutyl-N-((1S,2S)-2-((4-(piperidin-1-ylmethyl)phenyl)thio)-1-((2R,3R,4S,5R,6R)-3,4,5-trihydroxy-6-(methylthio)tetrahydro-2H-pyran-2-yl)propyl)octahydro-2H-oxepino[2,3-c]pyrrole-8-carboxamide] | 4 (≈ 6.01 µM) | 4 (≈ 6.01 µM) | 1 (≈ 1.5 µM) | 2 (≈ 3 µM) | 1 (≈ 1.5 µM) | 0.25 (≈ 0.375 µM) | 0.125 (≈ 0.188 µM) | 1 (≈ 1.5 µM) | 1 (≈ 1.5 µM) | 16 (≈ 24 µM) |  |  |  |  |
| CS[C@H]1O[C@H]([C@H](NC(=O)[C@H]2NC[C@@H]3C[C@H](CC(C)C)CCO[C@H]32)[C@H](C)Sc2ccc(CCN(C)C)cc2)[C@H](O)[C@H](O)[C@H]1O [FSA-09-04-087, (4S,5aS,8S,8aR)-N-((1S,2S)-2-((4-(2-(Dimethylamino)ethyl)phenyl)thio)-1-((2R,3R,4S,5R,6R)-3,4,5-trihydroxy-6-(methylthio)tetrahydro-2H-pyran-2-yl)propyl)-4-isobutyloctahydro-2H-oxepino[2,3-c]pyrrole-8-carboxamide] | 1 (≈ 1.56 µM) | 8 (≈ 12.5 µM) | 4 (≈ 6.25 µM) | 1 (≈ 1.56 µM) | 1 (≈ 1.56 µM) | 0.5 (≈ 0.781 µM) | 0.5 (≈ 0.781 µM) | 16 (≈ 25 µM) | 0.5 (≈ 0.781 µM) | 16 (≈ 25 µM) |  |  |  |  |
| CS[C@H]1O[C@H]([C@H](NC(=O)[C@H]2NC[C@@H]3C[C@H](CC(C)C)CCO[C@H]32)[C@H](C)Sc2nnc(N)s2)[C@H](O)[C@H](O)[C@H]1O [FSA-09-04-094, (4S,5aS,8S,8aR)-N-((1S,2S)-2-((5-Amino-1,3,4-thiadiazol-2-yl)thio)-1-((2R,3R,4S,5R,6R)-3,4,5-trihydroxy-6-(methylthio)tetrahydro-2H-pyran-2-yl)propyl)-4-isobutyloctahydro-2H-oxepino[2,3-c]pyrrole-8-carboxamide] | 32 (≈ 54.1 µM) | 128 (≈ 216 µM) | 128 (≈ 216 µM) | 4 (≈ 6.76 µM) | 64 (≈ 108 µM) | 0.5 (≈ 0.845 µM) | 1 (≈ 1.69 µM) | > 128 | 2 (≈ 3.38 µM) | > 128 |  |  |  |  |
| CS[C@H]1O[C@H]([C@H](NC(=O)[C@H]2NC[C@@H]3C[C@H](CC(C)C)CCO[C@H]32)[C@H](C)Sc2nnc(N3CCNCC3)s2)[C@H](O)[C@H](O)[C@H]1O [FSA-09-05-011, (4S,5aS,8S,8aR)-4-Isobutyl-N-((1S,2S)-2-((5-(piperazin-1-yl)-1,3,4-thiadiazol-2-yl)thio)-1-((2R,3R,4S,5R,6R)-3,4,5-trihydroxy-6-(methylthio)tetrahydro-2H-pyran-2-yl)propyl)octahydro-2H-oxepino[2,3-c]pyrrole-8-carboxamide] | 2 (≈ 3.03 µM) | 64 (≈ 96.8 µM) | 32 (≈ 48.4 µM) | 4 (≈ 6.05 µM) | 8 (≈ 12.1 µM) | 1 (≈ 1.51 µM) | 1 (≈ 1.51 µM) | 64 (≈ 96.8 µM) | 2 (≈ 3.03 µM) | 32 (≈ 48.4 µM) |  |  |  |  |
| CS[C@H]1O[C@H]([C@H](NC(=O)[C@H]2NC[C@@H]3C[C@H](CC(C)C)CCO[C@H]32)C(C)C(F)(F)F)[C@H](O)[C@H](O)[C@H]1O (mixture of isomers) [FSA-09-04-081, (4S,5aS,8S,8aR)-4-Isobutyl-N-((1R)-3,3,3-trifluoro-2-methyl-1-((2R,3R,4S,5R,6R)-3,4,5-trihydroxy-6-(methylthio)tetrahydro-2H-pyran-2-yl)propyl)octahydro-2H-oxepino[2,3-c]pyrrole-8-carboxamide] | 2 (≈ 3.78 µM) | 8 (≈ 15.1 µM) | 0.25 (≈ 0.473 µM) | 0.125 (≈ 0.236 µM) | 2 (≈ 3.78 µM) | 0.125 (≈ 0.236 µM) | 0.125 (≈ 0.236 µM) | 32 (≈ 60.5 µM) | 0.125 (≈ 0.236 µM) | 32 (≈ 60.5 µM) |  |  |  |  |
| CSC1O[C@H]([C@H](NC(=O)[C@H]2NC[C@@H]3C[C@H](CCCF)CCO[C@H]32)[C@H](C)Cl)C(O)C(O)[C@H]1O (stereo partly drawn) [FSA-12-03-035] | 4 (≈ 8.02 µM) | 8 (≈ 16 µM) | 4 (≈ 8.02 µM) | 0.125 (≈ 0.25 µM) | 4 (≈ 8.02 µM) | 0.06 (≈ 0.12 µM) | 0.06 (≈ 0.12 µM) | 4 (≈ 8.02 µM) | 0.25 (≈ 0.501 µM) | 8 (≈ 16 µM) |  |  |  |  |
| CS[C@H]1O[C@H]([C@H](NC(=O)[C@H]2NC[C@@H]3C[C@H](CC(C)C)CCO[C@H]32)[C@H](C)Sc2ccc(CN3CCCC3)cc2)[C@H](O)[C@H](O)[C@H]1O [FSA-09-05-078, (4S,5aS,8S,8aR)-4-Isobutyl-N-((1S,2S)-2-((4-(pyrrolidin-1-ylmethyl)phenyl)thio)-1-((2R,3R,4S,5R,6R)-3,4,5-trihydroxy-6-(methylthio)tetrahydro-2H-pyran-2-yl)propyl)octahydro-2H-oxepino[2,3-c]pyrrole-8-carboxamide] | 4 (≈ 6.14 µM) | 4 (≈ 6.14 µM) | 1 (≈ 1.53 µM) | 2 (≈ 3.07 µM) | 2 (≈ 3.07 µM) | 0.25 (≈ 0.383 µM) | 0.125 (≈ 0.192 µM) | 2 (≈ 3.07 µM) | 1 (≈ 1.53 µM) | 16 (≈ 24.5 µM) |  |  |  |  |
| NCC[C@H](O)C(=O)N[C@@H]1C[C@H](N)[C@@H](O[C@H]2O[C@H](CN)[C@@H](O)[C@H](O)[C@H]2O)[C@H](O)[C@H]1O[C@H]1O[C@H](CO)[C@@H](O)[C@H](N)[C@H]1O [Amikacin] |  |  |  |  |  |  |  |  |  |  | 4 (≈ 6.83 µM) | 4 (≈ 6.83 µM) | 4 (≈ 6.83 µM) | 64 (≈ 109 µM) |
